Assay results published in PMC11200585, “Prospects for Prostate Cancer Chemotherapy: Cytotoxic Evaluation and Mechanistic Insights of Quinolinequinones with ADME/PK Profile” (Biomedicines, 2024).

Experiments:
Type in all cases: cell-based, human
[1] = tested on: EKVX; test: NCI-60 one-dose screen (non-small cell lung cancer); conditions: 10 µM single dose, 48 h
[2] = tested on: HOP-62; test: as above; conditions: 10 µM single dose, 48 h
[3] = tested on: HOP-92; test: as above; conditions: 10 µM single dose, 48 h
[4] = tested on: NCI-H226; test: as above; conditions: 10 µM single dose
[5] = tested on: NCI-H23; test: as above; conditions: 10 µM single dose, 48 h
[6] = tested on: NCI-H322M; test: as above; conditions: 10 µM single dose
[7] = tested on: NCI-H460; test: as above; conditions: 10 µM single dose
[8] = tested on: NCI-H522; test: as above; conditions: 10 µM single dose, 48 h
[9] = tested on: COLO 205; test: NCI-60 one-dose screen (colon cancer); conditions: 10 µM single dose, 48 h
Experimental: (§1) The obtained quinolinequinones were submitted to NCI, Bethesda, USA, and, as per standard protocol of NCI, all compounds were evaluated for their antiproliferative activity at single-dose assay (10 µM concentration in DMSO) on a panel of 60 cancer cell lines derived from leukemia, non-small-cell lung, colon, CNS, melanoma, ovarian, renal, prostate, and breast, as per protocol. Tested compounds were added to the microtiter culture plates followed by incubation for 48 h at 37 °C. Sulforhodamine B (SRB), a protein-binding dye, is used for endpoint determination. The percent of the growth of the treated cells was determined in comparison to the untreated control cells and the results of each tested compound were reported. Data from one-dose experiments pertain to the percentage growth at 10 μM [16, 17, 18].

[10] = tested on: HCC-2998; test: NCI-60 one-dose screen (colon cancer); conditions: 10 µM single dose
Experimental: as §1

[11] = tested on: HCT-116; test: NCI-60 one-dose screen (colon cancer); conditions: 10 µM single dose, 48 h
Experimental: as §1

[12] = tested on: HCT-15; test: NCI-60 one-dose screen (colon cancer); conditions: 10 µM single dose, 48 h
Experimental: as §1

[13] = tested on: HT29; test: NCI-60 one-dose screen (colon cancer)
Experimental: as §1

[14] = tested on: KM12; test: NCI-60 one-dose screen (colon cancer); conditions: 10 µM single dose, 48 h
Experimental: as §1

[15] = tested on: SW-620; test: NCI-60 one-dose screen (colon cancer); conditions: 10 µM single dose, 48 h
Experimental: as §1

[16] = tested on: 786-0; test: NCI-60 one-dose screen (renal cancer); conditions: 10 µM single dose, 48 h
Experimental: as §1

[17] = tested on: A498; test: NCI-60 one-dose screen (renal cancer); conditions: 10 µM single dose, 48 h
Experimental: as §1

[18] = tested on: ACHN; test: NCI-60 one-dose screen (renal cancer); conditions: 10 µM single dose, 48 h
Experimental: as §1

[19] = tested on: SN12C; test: NCI-60 one-dose screen (renal cancer); conditions: 10 µM single dose, 48 h
Experimental: as §1

[20] = tested on: TK-10; test: NCI-60 one-dose screen (renal cancer); conditions: 10 µM single dose, 48 h
Experimental: as §1

[21] = tested on: UO-31; test: NCI-60 one-dose screen (renal cancer); conditions: 10 µM single dose, 48 h
Experimental: as §1

[22] = tested on: MOLT-4; test: NCI-60 five-dose assay (leukemia); conditions: 48 h, SRB
[23] = tested on: RPMI-8226; test: NCI-60 five-dose assay (leukemia); conditions: 48 h, SRB
[24] = tested on: EKVX; test: NCI-60 five-dose assay (non-small cell lung cancer); conditions: 48 h, SRB
[25] = tested on: HOP-92; test: as above; conditions: 48 h, SRB
[26] = tested on: NCI-H226; test: as above; conditions: 48 h, SRB
[27] = tested on: NCI-H522; test: as above; conditions: 48 h, SRB
[28] = tested on: HCT-116; test: NCI-60 five-dose assay (colon cancer); conditions: 48 h, SRB
[29] = tested on: HT29; test: NCI-60 five-dose assay (colon cancer); conditions: SRB
[30] = tested on: SF-268; test: NCI-60 five-dose assay (CNS cancer); conditions: 48 h, SRB
[31] = tested on: SF-539; test: NCI-60 five-dose assay (CNS cancer); conditions: 48 h, SRB
[32] = tested on: U251; test: NCI-60 five-dose assay (CNS cancer); conditions: SRB
[33] = tested on: UACC-62; test: NCI-60 five-dose assay (melanoma); conditions: 48 h, SRB
[34] = tested on: OVCAR-3; test: NCI-60 five-dose assay (ovarian cancer); conditions: 48 h, SRB
[35] = tested on: 786-0; test: NCI-60 five-dose assay (renal cancer); conditions: 48 h, SRB
[36] = tested on: CAKI-1; test: NCI-60 five-dose assay (renal cancer); conditions: 48 h, SRB
[37] = tested on: DU-145; test: NCI-60 five-dose assay (prostate cancer); conditions: 48 h, SRB
[38] = tested on: BT-549; test: NCI-60 five-dose assay (breast cancer); conditions: 48 h, SRB
[39] = Homo sapiens, read-out: LC50 (the source's name)

CCOc1ccccc1NC1=C(Cl)C(=O)c2nc(C)ccc2C1=O [AQQ2]
GP (growth percentage) [1]: −2.24% | GP (growth percentage) [2]: 84.25% | GP (growth percentage) [3]: −89.25% | GP (growth percentage) ([4]; 48 h): 17.62% | inhibition at 10 µM ([4]; Homo sapiens): 82.4% | GP (growth percentage) [5]: −67.81% | GP (growth percentage) ([6]; 48 h): 28.84% | inhibition at 10 µM ([6]; Homo sapiens): 71.2% | GP (growth percentage) ([7]; 48 h): 12.07% | inhibition at 10 µM ([7]; Homo sapiens): 87.9% | GP (growth percentage) [8]: −43.48% | GP (growth percentage) [9]: 99.24% | GP (growth percentage) ([10]; 48 h): 20.35% | inhibition at 10 µM ([10]; Homo sapiens): 79.7% | GP (growth percentage) [11]: −79.44% | GP (growth percentage) [12]: −76.56% | GP (growth percentage) ([13]; 10 µM single dose, 48 h): 19.96% | inhibition at 10 µM ([13]; Homo sapiens, HT-29, 10 µM single dose): 80% | GP (growth percentage) [14]: 60.77% | GP (growth percentage) [15]: −66.65% | GP (growth percentage) [16]: −88.18% | GP (growth percentage) [17]: 78.84% | GP (growth percentage) [18]: −99.15% | GP (growth percentage) [19]: −50.97% | GP (growth percentage) [20]: 124.08% | GP (growth percentage) [21]: −92.96% | TGI [22]: 8.09 µM | GI50 ([22]; Homo sapiens): 2.03 µM | LC50 ([22]; Homo sapiens): > 100 µM | TGI [23]: 4.71 µM | GI50 ([23]; Homo sapiens): 1.2 µM | CC50 [23, 39]: > 100 µM | TGI [24]: 2.98 µM | GI50 ([24]; Homo sapiens): 1.56 µM | CC50 [24, 39]: 5.7 µM | TGI [25]: 3.33 µM | GI50 ([25]; Homo sapiens): 1.8 µM | LC50 (50% lethal concentration) ([25]; Homo sapiens): 6.13 µM | TGI [26]: 4.24 µM | GI50 ([26]; Homo sapiens): 1.78 µM | LC50 ([26]; Homo sapiens): 16.2 µM | TGI [27]: 3.28 µM | GI50 ([27]; Homo sapiens): 1.74 µM | LC50 ([27]; Homo sapiens): 6.18 µM | TGI [28]: 2.31 µM | GI50 ([28]; Homo sapiens): 1.05 µM | LC50 ([28]; Homo sapiens): 5.05 µM | TGI ([29]; 48 h): 15.2 µM | GI50 ([29]; Homo sapiens, HT-29, 48 h): 3.4 µM | LC50 (concentration killing 50% of cells) ([29]; Homo sapiens, HT-29, 48 h): 99.5 µM | TGI [30]: 2.94 µM | GI50 ([30]; Homo sapiens): 1.47 µM | LC50 (concentration killing 50% of cells) ([30]; Homo sapiens): 5.87 µM | TGI [31]: 3.09 µM | GI50 ([31]; Homo sapiens): 1.67 µM | LC50 ([31]; Homo sapiens): 5.71 µM | TGI ([32]; 48 h): 3.27 µM | GI50 ([32]; Homo sapiens, U-251, 48 h): 1.7 µM | LC50 (concentration killing 50% of cells) ([32]; Homo sapiens, U-251, 48 h): 6.28 µM | TGI [33]: 3.36 µM | GI50 ([33]; Homo sapiens): 1.8 µM | LC50 (concentration killing 50% of cells) ([33]; Homo sapiens): 6.28 µM | TGI [34]: 2.03 µM | GI50 ([34]; Homo sapiens): 0.759 µM | CC50 [34, 39]: 4.54 µM | TGI [35]: 3.25 µM | GI50 ([35]; Homo sapiens): 1.8 µM | LC50 ([35]; Homo sapiens): 5.86 µM | TGI [36]: 2.84 µM | GI50 ([36]; Homo sapiens): 1.45 µM | LC50 (lethal concentration, 50% net cell kill) ([36]; Homo sapiens): 5.57 µM | TGI [37]: 2.99 µM | GI50 ([37]; Homo sapiens): 1.63 µM | CC50 [37, 39]: 5.49 µM | TGI [38]: 2.88 µM | GI50 ([38]; Homo sapiens): 1.52 µM | LC50 (concentration giving 50% net cell kill) ([38]; Homo sapiens): 5.46 µM
